From PMC4904354 (Journal of Cerebral Blood Flow & Metabolism, 2015)
Read-outs that look alike come from different tables or passages of the source.

What was measured:
[1] = cited from earlier work
NMDA receptor [2] = settings: cited from earlier work
NMDA receptor [3] = settings: cited from earlier work; remark: listed apart in the source
[4] = system: N-methyl-D-aspartate receptor; format: in vivo, human; settings: for K1, rate constant of transport, mean (SD) / Ki, net influx rate constant, mean (SD) / VND(K1/k2), nondisplaceable distribution volume, mean (SD): 2T3k_VB model, 90 min data
[5] = Plasma metabolite analysis of [^11C]GMOM; format: in vivo, human; settings: for parent fraction in plasma: mean ± SD, all scans N = 15
[6] = S-ketamine challenge: plasma concentration and tolerability; format: in vivo, human
[7] = target: NMDA receptor ion-channel; settings: read-out: apparent affinity value against [^3H]MK-801 (Ki); no reference given; cited from earlier work
[8] = followed by prolonged modest decrease until 90 min
[9] = cerebellum, after S-ketamine 0.3 mgkg^−1 i.v., N = 6
[10] = frontal cortex, baseline, N = 9
[11] = occipital cortex, baseline, N = 9
[12] = parietal cortex, baseline, N = 9
[13] = striatum, after S-ketamine 0.3 mgkg^−1 i.v., N = 6
[14] = temporal cortex, baseline, N = 9
[15] = thalamus, after S-ketamine 0.3 mgkg^−1 i.v., N = 6
[16] = whole brain gray matter, baseline, N = 9

CSc1cccc(N(C)C(N)=Nc2cc(SCC[18F])ccc2Cl)c1 [[[18]F]GE-179]
log D7.4 ([1]; pH 7.4): 2.49
mean parent fraction remaining in plasma (NMDA receptor [2]; at 20 min postinjection): 50%
time of peak uptake in brain TACs (NMDA receptor [2]; [8]): around 20 min

CSc1cccc(N(C)C(N)=Nc2cc(SCCF)ccc2Cl)c1 [[[18]F]GE-179]
Kd (NMDA receptor [3]): 2.4 nM

CSc1ccc(Cl)c(NC(=N)N(C)c2cccc(O[11CH3])c2)c1 [[^11C]GMOM, N-(2-chloro-5-thiomethylphenyl)-N′-(3-[^11C]methoxy-phenyl)-N′-methylguanidine]
K1, rate constant of transport, mean (SD) [4, 9]: 0.45 (0.06) min^−1
Ki, net influx rate constant, mean (SD) [4, 9]: 0.005 (0.008) min^−1
VND(K1/k2), nondisplaceable distribution volume, mean (SD) [4, 9]: 9.37 (0.98)
K1, rate constant of transport, mean (SD) ([4]; cerebellum, baseline, N = 9): 0.46 (0.07) min^−1
Ki, net influx rate constant, mean (SD) ([4]; cerebellum, baseline, N = 9): 0.014 (0.010) min^−1
VND(K1/k2), nondisplaceable distribution volume, mean (SD) ([4]; cerebellum, baseline, N = 9): 8.43 (2.02)
time of peak uptake in brain TACs [4, 8]: around 20 min
K1, rate constant of transport, mean (SD) [4, 10]: 0.48 (0.07) min^−1
Ki, net influx rate constant, mean (SD) [4, 10]: 0.023 (0.014) min^−1
VND(K1/k2), nondisplaceable distribution volume, mean (SD) [4, 10]: 8.54 (2.00)
K1, rate constant of transport, mean (SD) ([4]; hippocampus, baseline, N = 9): 0.36 (0.07) min^−1
Ki, net influx rate constant, mean (SD) ([4]; hippocampus, baseline, N = 9): 0.028 (0.012) min^−1
VND(K1/k2), nondisplaceable distribution volume, mean (SD) ([4]; hippocampus, baseline, N = 9): 7.82 (2.25)
K1, rate constant of transport, mean (SD) [4, 11]: 0.47 (0.04) min^−1
Ki, net influx rate constant, mean (SD) [4, 11]: 0.021 (0.012) min^−1
VND(K1/k2), nondisplaceable distribution volume, mean (SD) [4, 11]: 8.53 (1.73)
K1, rate constant of transport, mean (SD) [4, 12]: 0.46 (0.05) min^−1
Ki, net influx rate constant, mean (SD) [4, 12]: 0.021 (0.014) min^−1
VND(K1/k2), nondisplaceable distribution volume, mean (SD) [4, 12]: 8.81 (1.98)
K1, rate constant of transport, mean (SD) [4, 13]: 0.50 (0.08) min^−1
Ki, net influx rate constant, mean (SD) [4, 13]: 0.007 (0.007) min^−1
VND(K1/k2), nondisplaceable distribution volume, mean (SD) [4, 13]: 9.88 (0.86)
K1, rate constant of transport, mean (SD) ([4]; striatum, baseline, N = 9): 0.50 (0.06) min^−1
Ki, net influx rate constant, mean (SD) ([4]; striatum, baseline, N = 9): 0.021 (0.015) min^−1
VND(K1/k2), nondisplaceable distribution volume, mean (SD) ([4]; striatum, baseline, N = 9): 9.15 (1.85)
K1, rate constant of transport, mean (SD) [4, 14]: 0.41 (0.06) min^−1
Ki, net influx rate constant, mean (SD) [4, 14]: 0.020 (0.012) min^−1
VND(K1/k2), nondisplaceable distribution volume, mean (SD) [4, 14]: 8.63 (2.06)
K1, rate constant of transport, mean (SD) [4, 15]: 0.52 (0.09) min^−1
Ki, net influx rate constant, mean (SD) [4, 15]: 0.006 (0.007) min^−1
VND(K1/k2), nondisplaceable distribution volume, mean (SD) [4, 15]: 11.32 (1.58)
K1, rate constant of transport, mean (SD) ([4]; thalamus, baseline, N = 9): 0.50 (0.08) min^−1
Ki, net influx rate constant, mean (SD) ([4]; thalamus, baseline, N = 9): 0.024 (0.019) min^−1
VND(K1/k2), nondisplaceable distribution volume, mean (SD) ([4]; thalamus, baseline, N = 9): 10.14 (2.56)
K1, rate constant of transport, mean (SD) [4, 16]: 0.45 (0.05) min^−1
Ki, net influx rate constant, mean (SD) [4, 16]: 0.021 (0.012) min^−1
VND(K1/k2), nondisplaceable distribution volume, mean (SD) [4, 16]: 8.47 (1.88)
parent fraction in plasma ([5]; at 5 min p.i.): 0.80 ± 0.06
mean parent fraction remaining in plasma ([5]; at 20 min postinjection): 50%
parent fraction in plasma ([5]; at 60 min p.i.): 0.21 ± 0.08
nonpolar metabolites fraction in plasma ([5]; at 90 min p.i.): 1.5 ± 2.0%
log P [1]: 2.34

CSc1cccc(N(C)C(=N)Nc2cc(SC)ccc2Cl)c1 [[^11C]CNS5161]
Kd (NMDA receptor [3]): 1.9 ± 0.3 nM

CN[C@]1(c2ccccc2Cl)CCCCC1=O [S-ketamine]
mean plasma level of S-ketamine during the blocking scans ([6]; 0.3 mgkg^−1 i.v., pseudo-steady state, healthy volunteers): 56.2 ngml^−1
tolerability of the administered dose during scans ([6]; 0.3 mgkg^−1 i.v., healthy volunteers): able to tolerate
mean S-ketamine plasma concentration ([6]; at the end of the scan, six subjects, 0.3 mg kg^−1 i.v. pseudo-steady state): 38 ng/mL
Ki [7]: ~1000 nM

CSc1ccc(Cl)c(NC(=N)N(C)c2cccc(S[11CH3])c2)c1 [[^11C]CNS5161]
log P [1]: 1.92

CN(C(=N)Nc1cccc2ccccc12)c1cccc(I)c1 [[^123I]CNS1261]
Kd (NMDA receptor [3]): 4.2 ± 0.4 nM
